In patent publication US11999993B2, “Use of biomarkers in identifying cancer patients that will be responsive to treatment with a PRMT5 inhibitor” (Janssen Pharmaceutica NV, priority 2017, dated 2024):

Experiments:
NCI-H1048 = test: Cellular sensitivity, lung cancer cell line panel (SCLC); format: cell-based; settings: Homo sapiens, NCI-H1048, PIK3CA H1047R
LU99a = test: as above; format: cell-based; settings: Homo sapiens, LU-99A, PIK3CA T1025A
H69V = test: as above; format: cell-based; settings: PIK3CA G106_R108del
NCI-H441 = test: Proliferation sensitivity, NSCLC U2AF1-S34F cell panel; format: cell-based; settings: Homo sapiens, Adenocarcinoma
LC-2/ad = test: as above; format: cell-based; settings: Homo sapiens, Adenocarcinoma
HCC78 = test: as above; format: cell-based; settings: Homo sapiens, Adenocarcinoma
EPLC272H = test: Lung cell line panel sensitivity, Cyclin D1 pathway amplified NSCLC; format: cell-based; settings: Homo sapiens, EPLC-272H, Adenocarcinoma
NCI-H226 = test: as above; format: cell-based; settings: Homo sapiens; NCI-H226, CDK4 amplified, Adenocarcinoma
HLC1 = test: as above; format: cell-based; settings: HLC1, CDK6 amplified, Squamous Cell Carcinoma
PRMT5 = PRMT5 (Homo sapiens, UniProt O14744); settings: Chan-Penebre et al., Nat Chem Biol 2015; cited from earlier work
Chain of PRMT5 (O14744 whole entry): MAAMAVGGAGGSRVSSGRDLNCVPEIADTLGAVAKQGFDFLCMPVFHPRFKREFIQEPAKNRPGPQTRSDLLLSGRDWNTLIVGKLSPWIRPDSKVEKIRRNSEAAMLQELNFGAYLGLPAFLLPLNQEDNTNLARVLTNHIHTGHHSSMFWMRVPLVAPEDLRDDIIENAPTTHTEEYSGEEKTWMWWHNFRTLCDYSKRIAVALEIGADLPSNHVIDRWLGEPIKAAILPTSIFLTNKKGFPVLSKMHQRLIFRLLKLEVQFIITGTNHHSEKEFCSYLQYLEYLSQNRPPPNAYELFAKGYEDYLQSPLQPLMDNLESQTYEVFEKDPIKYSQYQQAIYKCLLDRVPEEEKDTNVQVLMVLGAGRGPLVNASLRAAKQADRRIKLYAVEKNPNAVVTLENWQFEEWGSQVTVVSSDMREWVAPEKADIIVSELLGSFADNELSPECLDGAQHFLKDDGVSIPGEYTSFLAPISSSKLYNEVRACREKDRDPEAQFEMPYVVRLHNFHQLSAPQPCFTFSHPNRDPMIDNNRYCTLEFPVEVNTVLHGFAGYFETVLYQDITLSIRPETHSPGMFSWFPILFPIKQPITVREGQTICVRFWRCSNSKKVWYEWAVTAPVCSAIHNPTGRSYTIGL
Chain of PRMT5 (Q9BQA1 whole entry partner): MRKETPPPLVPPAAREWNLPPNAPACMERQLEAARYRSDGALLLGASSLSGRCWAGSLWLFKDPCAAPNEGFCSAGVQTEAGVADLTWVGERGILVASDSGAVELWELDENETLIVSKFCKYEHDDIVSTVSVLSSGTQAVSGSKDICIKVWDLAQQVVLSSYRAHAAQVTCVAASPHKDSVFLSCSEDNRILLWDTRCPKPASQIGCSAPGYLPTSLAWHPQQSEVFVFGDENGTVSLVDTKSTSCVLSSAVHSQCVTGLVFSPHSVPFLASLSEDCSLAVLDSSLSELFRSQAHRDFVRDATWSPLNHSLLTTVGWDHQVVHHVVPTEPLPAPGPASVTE

MCL xenograft models = settings: multiple MCL xenograft models; Chan-Penebre et al. 2015; cited from earlier work

Row | SMILES | GI50 (NCI-H1048) [nM] | GI50 (LU99a) [nM] | GI50 (H69V) [nM] | GI50 (NCI-H441) [nM] | GI50 (LC-2/ad) [nM] | GI50 (HCC78) [nM] | GI50 (EPLC272H) [nM] | GI50 (NCI-H226) [nM] | GI50 (HLC1) [nM] | PRMT5 inhibitor potency (PRMT5) | anti-tumor activity (MCL xenograft models)
1 | Nc1ncnc2c1ccn2[C@@H]1O[C@H](COc2ccc3cc(Br)cnc3c2)[C@@H](O)[C@H]1O [Compound 2] | 94.6 | 129 | 85.6 | 98.4 | 116 | 108 | 98.5 | 205 | 96.4 | – | –
2 | O=C(NC[C@H](O)CN1CCc2ccccc2C1)c1cc(NC2COC2)ncn1 [EPZ015666] | – | – | – | – | – | – | – | – | – | sub-nanomolar | anti-tumor activity in multiple MCL xenograft models
